According to patent US12384818B2, “Cyclin-dependent kinase 5 (CDK5) inhibitory peptides” (Massachusetts Institute of Technology, priority 2017, dated 2025):
Ends that are not written are not given here. Peptide text beside a SMILES is read from it. * marks the point of attachment. FITC = O=C1OC2(c3ccc(O)cc3Oc3cc(O)ccc32)c2ccc(NC(=S)*)cc21; Ahx = NCCCCCC(=O)O

Key:
[1] = Blood brain barrier penetration in mice, targeted mass spectrometry of brain lysate; format: in vivo; conditions: 24 hours; for #Spec (number of spectra) / Area (peak area): tryptic fragment in brain lysate, mice 40 mg/kg i.p.
Experimental: Wild type mice were intraperitoneally injected with a single dose (40 mg/kg) of Cdk5i, and were sacrificed 24 hours after the injection. Prior to extracting the brain, mice were transcardially perfused with 40 mL of cold phospho-buffered saline (PBS) to ensure clearance of any Cdk5i circulating in the blood that may not have crossed the blood brain barrier. After the perfusion, the brains were dissected into two hemispheres and one hemisphere was lysed with cold lysis buffer (RIPA) to extract total protein. Total protein was then briefly run on a 12% acrylamide gel to separate large proteins and then digested with a trypsin enzyme and subjected to targeted mass spectrometry analysis using Cdk5i peptide sequence of SEQ ID NO. 3 linked to a GGG spacer/linker and FITC (Cdk5i sequence: FITC-GGG-SEQ ID NO. 3).
A substantial portion (11 amino acids out of 12) of the Cdk5i sequence including the conjugated tat protein sequence were detected using mass spectrometry based on the number of spectra and peak area. Using targeted mass spectrometry, brain lysate from mice injected with Cdk5i show an enrichment for Cdk5i based on # of spectra and peak area (2nd row of data in Table 1).

[2] = test system: Human iPSC-derived neural progenitor cells; conditions: 1 μM, 2 hr; FIG. 9B

| Molecule | portion of the Cdk5i sequence detected in brain ([1]; wild type mice, single dose 40 mg/kg intraperitoneally, perfused brain, mass spectrometry) | blood brain barrier penetration / enrichment in brain lysate ([1]; wild type mice, single dose 40 mg/kg intraperitoneally, targeted mass spectrometry) | #Spec (number of spectra) [1] | Area (peak area) [1] | penetration of plasma membrane (intracellular FITC signals) [2] |
| --- | --- | --- | --- | --- | --- |
| ARAFGIPVRCYS [CDK5i] | 11 amino acids out of 12 | enrichment | – | – | – |
| R.CYSYGRK.K: tryptic fragment of Cdk5i-Tat detected in mouse brain lysate by mass spectrometry | – | – | 12 | 6.13E+08 | – |
| CC[C@H](C)[C@H](NC(=O)CNC(=O)[C@H](Cc1ccccc1)NC(=O)[C@H](C)NC(=O)[C@H](CCCNC(=N)N)NC(=O)[C@H](C)NC(=O)CCCCCNC(=S)Nc1ccc2c(c1)C(=O)OC21c2ccc(O)cc2Oc2cc(O)ccc21)C(=O)N1CCC[C@H]1C(=O)N[C@H](C(=O)N[C@@H](CCCNC(=N)N)C(=O)N[C@@H](CS)C(=O)N[C@@H](Cc1ccc(O)cc1)C(=O)N[C@@H](CO)C(=O)N[C@@H](Cc1ccc(O)cc1)C(=O)NCC(=O)N[C@@H](CCCNC(=N)N)C(=O)N[C@@H](CCCCN)C(=O)N[C@@H](CCCCN)C(=O)N[C@@H](CCCNC(=N)N)C(=O)N[C@@H](CCCNC(=N)N)C(=O)N[C@@H](CCC(N)=O)C(=O)N[C@@H](CCCNC(=N)N)C(=O)N[C@@H](CCCNC(=N)N)C(=O)N[C@@H](CCCNC(=N)N)C(=O)O)C(C)C [FITC-Ahx-Cdk5i-Tat] ({FITC-Ahx}-ARAFGIPVRCYSYGRKKRRQRRR-OH) | – | – | – | – | able to penetrate plasma membrane |
| ARAFGIPVR | – | – | 12 | 3.83E+07 | – |
| R.AFGIPVRCYSYGR.K: tryptic fragment of Cdk5i-Tat detected in mouse brain lysate by mass spectrometry | – | – | 22 | 8.42E+08 | – |
